According to patent US9561231B2 (AbbVie Inc., priority 2012, dated 2017):
Like-named read-outs stand apart in the source and are kept apart here.

Tests used:
[1] = tested on: breast cancer cell line MX-1; test: MX-1 cell line proliferation assay (3-day); type: cell-based; details: Homo sapiens, MX1, MX-1 cells, Cell Titer Glo, read-out: Cellular proliferation: EC50
How it was run: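 MX-1 cells in RPMI/10% FBS, plated 5000/well overnight, then exposed to compound at final 3 to 0.0001 μM (3-fold series) for 3 days at 37° C. Cell Titer Glo luminescence normalized to DMSO-treated cells; EC50 from sigmoidal curve fit.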

[2] = target: T1, first (BD1: amino acids K57-E168) bromodomain of BRD4 (Homo sapiens, UniProt O60885); test: TR-FRET bromodomain binding assay, BRD4 BD1; details: Ki calculated from IC50, probe Kd and probe concentration, read-out: TR-FRET Binding Ki: BRD4 (BDI_K57-E168)
T1 construct: His-tagged first (BD1: amino acids K57-E168)
How it was run: (§1)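 TR-FRET probe competition, His-tagged bromodomain, Alexa647-labeled BET-inhibitor tracer. Ki from IC50 via probe Kd.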

[3] = target: T2, second (BD2: amino acids E352-E168) bromodomain of BRD4 (Homo sapiens, UniProt O60885); test: TR-FRET bromodomain binding assay, BRD4 BD2; details: Ki calculated from IC50, probe Kd and probe concentration, read-out: TR-FRET Binding Ki: BRD4 (BDII_E352-M457)
T2 construct: protocol
How it was run: as §1

[4] = TR-FRET assay protocol (A-G, compound concentration range)
[5] = TR-FRET assay protocol (D, E or G) per compound

Row | Compound | EC50 ([1]; 72 h incubation) | Ki [2, 4] | Ki [3, 4] | EC50 ([1]; 72 hours with compound) | Ki [2, 5] | Ki [3, 5]
1 | Cn1cc(-c2cc(NC(=O)c3ccc[nH]3)ccc2Oc2ccccc2)ccc1=O [Example 251, N-[3-(1-methyl-6-oxo-1,6-dihydropyridin-3-yl)-4-phenoxyphenyl]-1H-pyrrole-2-carboxamide] | 1100 nM | 197 nM | 260 nM |  |  | 
2 | CCOc1cc(=O)n(C)cc1-c1cc(S(=O)(=O)CC)ccc1Oc1ccc(C#N)cc1 [Example 378, 4-[2-(4-ethoxy-1-methyl-6-oxo-1,6-dihydropyridin-3-yl)-4-(ethylsulfonyl)phenoxy]benzonitrile] |  |  |  | 103 nM | 113 nM | 31.7 nM
3 | CCS(=O)(=O)Nc1ccc(Oc2ccc(F)cc2F)c(-c2cn(C)c(=O)cc2NCC2CC2)c1 [Example 353, N-[3-{4-[(cyclopropylmethyl)amino]-1-methyl-6-oxo-1,6-dihydropyridin-3-yl}-4-(2,4-difluorophenoxy)phenyl]ethanesulfonamide] | 56.9 nM | 4.41 nM | 2.3 nM |  |  | 
4 | CCS(=O)(=O)c1ccc(Oc2ccc(F)cc2F)c(-c2cn(C)c(=O)cc2OC2COC2)c1 [Example 318, 5-[2-(2,4-difluorophenoxy)-5-(ethylsulfonyl)phenyl]-1-methyl-4-(oxetan-3-yloxy)pyridin-2(1H)-one] | 42.7 nM | 156 nM | 15.3 nM |  |  | 
5 | CCS(=O)(=O)c1ccc(OCC2CC2)c(-c2cn(C)c(=O)cc2OC)c1 [Example 275, 5-[2-(cyclopropylmethoxy)-5-(ethylsulfonyl)phenyl]-4-methoxy-1-methylpyridin-2(1H)-one] | 223 nM | 55.9 nM | 119 nM |  |  | 
6 | CCOc1cc(=O)n(C)cc1-c1cc(NS(=O)(=O)CC)ccc1Oc1ccc(F)c(F)c1 [Example 401, N-[4-(3,4-difluorophenoxy)-3-(4-ethoxy-1-methyl-6-oxo-1,6-dihydropyridin-3-yl)phenyl]ethanesulfonamide] |  |  |  | 25.1 nM | 19.8 nM | 4.99 nM
7 | Cn1cc(-c2cc(NS(C)(=O)=O)ccc2Oc2cccc(C#N)c2)ccc1=O [Example 245, N-[4-(3-cyanophenoxy)-3-(1-methyl-6-oxo-1,6-dihydropyridin-3-yl)phenyl]methanesulfonamide] | 1010 nM | 78.6 nM | 439 nM |  |  | 
8 | COc1cc(-c2cc(=O)n(C)nc2-c2ccccc2Oc2ccccc2)ccn1 [Example 57, 5-(2-methoxypyridin-4-yl)-2-methyl-6-(2-phenoxyphenyl)pyridazin-3(2H)-one] | 1860 nM | 598 nM | 250 nM |  |  | 
9 | Cn1nc(-c2ccccc2OCc2ccccc2)ccc1=O [Example 2, 6-[2-(benzyloxy)phenyl]-2-methylpyridazin-3(2H)-one] | 13500 nM | 11700 nM | 2860 nM |  |  | 
10 | CCS(=O)(=O)Nc1ccc(Oc2ccc(F)cc2F)c(-c2cn(C)c(=O)cc2NC2CC2)c1 [Example 362, N-{3-[4-(cyclopropylamino)-1-methyl-6-oxo-1,6-dihydropyridin-3-yl]-4-(2,4-difluorophenoxy)phenyl}ethanesulfonamide] | 33.6 nM | 5.81 nM | 2.76 nM |  |  | 
11 | CC(=O)NCc1ccc(Oc2ccccc2)c(-c2ccc(=O)n(C)n2)c1 [Example 16, N-[3-(1-methyl-6-oxo-1,6-dihydropyridazin-3-yl)-4-phenoxybenzyl]acetamide] | 5900 nM | 1110 nM | 8420 nM |  |  | 
12 | CCOc1cc(=O)n(C)cc1-c1cc(S(=O)(=O)CC)ccc1Oc1ccc(OC(F)(F)F)cc1 [Example 377, 4-ethoxy-5-{5-(ethylsulfonyl)-2-[4-(trifluoromethoxy)phenoxy]phenyl}-1-methylpyridin-2(1H)-one] |  |  |  | 92.4 nM | 53.4 nM | 6.41 nM
13 | CC(=O)NCCc1ccc(-c2cc(=O)n(C)nc2-c2ccccc2Oc2ccccc2)cc1 [Example 100, N-(2-{4-[1-methyl-6-oxo-3-(2-phenoxyphenyl)-1,6-dihydropyridazin-4-yl]phenyl}ethyl)acetamide] | > 3000 nM | 143 nM | 72.2 nM |  |  | 
14 | CCOc1cc(=O)n(C)cc1-c1cc(CS(C)(=O)=O)ccc1Oc1ccc(F)cc1F [Example 370, 5-{2-(2,4-difluorophenoxy)-5-[(methylsulfonyl)methyl]phenyl}-4-ethoxy-1-methylpyridin-2(1H)-one] | 135 nM | 52.7 nM | 39.5 nM |  |  | 
15 | Cn1nc(-c2ccccc2Oc2ccccc2)c(-c2ccc(CN3CCOCC3)cc2)cc1=O [Example 66, 2-methyl-5-[4-(morpholin-4-ylmethyl)phenyl]-6-(2-phenoxyphenyl)pyridazin-3(2H)-one] | 2480 nM | 141 nM | 159 nM |  |  | 
16 | COC(=O)CCc1cc(=O)n(C)nc1-c1ccccc1Oc1ccccc1 [Example 220, methyl 3-[1-methyl-6-oxo-3-(2-phenoxyphenyl)-1,6-dihydropyridazin-4-yl]propanoate] | 16400 nM | 24300 nM | 1910 nM |  |  | 
17 | CCOc1cc(=O)n(C)cc1-c1cc(NS(=O)(=O)CC)ccc1Oc1ccc(Cl)cc1F [Example 403, N-[4-(4-chloro-2-fluorophenoxy)-3-(4-ethoxy-1-methyl-6-oxo-1,6-dihydropyridin-3-yl)phenyl]ethanesulfonamide] |  |  |  | 23.9 nM | 14.7 nM | 1.38 nM
18 | CCC(O)c1ccc(-c2cc(=O)n(C)nc2-c2ccccc2Oc2ccccc2)cc1 (stereo not drawn) [Example 75, 5-[4-(1-hydroxypropyl)phenyl]-2-methyl-6-(2-phenoxyphenyl)pyridazin-3(2H)-one] | 1390 nM | 264 nM | 195 nM |  |  | 
19 | CCS(=O)(=O)Nc1ccc(Oc2ccc(F)cc2F)c(-c2cn(C)c(=O)cc2OCc2ccc(CN3CCOCC3)cc2)c1 [Example 315, N-[4-(2,4-difluorophenoxy)-3-(1-methyl-4-{[4-(morpholin-4-ylmethyl)benzyl]oxy}-6-oxo-1,6-dihydropyridin-3-yl)phenyl]ethanesulfonamide] | 55.6 nM | 2.51 nM | 0.39 nM |  |  | 
20 | CCS(=O)(=O)Nc1ccc(Oc2ccc(F)cc2F)c(-c2cn(C)c(=O)cc2-c2cnn(Cc3ccccc3)c2)c1 [Example 390, N-{3-[4-(1-benzyl-1H-pyrazol-4-yl)-1-methyl-6-oxo-1,6-dihydropyridin-3-yl]-4-(2,4-difluorophenoxy)phenyl}ethanesulfonamide] |  |  |  | 79.8 nM | 36.5 nM | 13.5 nM
21 | Cn1cc(-c2cc(NS(C)(=O)=O)ccc2Oc2ccc(F)cc2F)c(-c2ccc(CO)cc2)cc1=O [Example 272, N-[4-(2,4-difluorophenoxy)-3-{4-[4-(hydroxymethyl)phenyl]-1-methyl-6-oxo-1,6-dihydropyridin-3-yl]phenyl}methanesulfonamide] | 167 nM | 16.9 nM | 4.62 nM |  |  | 
22 | CCOc1cc(=O)n(C)cc1-c1cc(C(C)(C)S(=O)(=O)CC)ccc1Oc1ccc(F)cc1F [Example 380, 5-{2-(2,4-difluorophenoxy)-5-[2-(ethylsulfonyl)propan-2-yl]phenyl}-4-ethoxy-1-methylpyridin-2(1H)-one] |  |  |  | 38.4 nM | 14.3 nM | 3.88 nM
23 | CCS(=O)(=O)Nc1ccc(Oc2ccc(F)cc2F)c(-c2cn(C)c(=O)cc2OC2CC3(C2)CN(C(=O)OC(C)(C)C)C3)c1 [Example 325, tert-butyl 6-[(5-{2-(2,4-difluorophenoxy)-5-[(ethylsulfonyl)amino]phenyl}-1-methyl-2-oxo-1,2-dihydropyridin-4-yl)oxy]-2-azaspiro[3.3]heptane-2-carboxylate] | 101 nM | 30.6 nM | 21.4 nM |  |  | 
24 | Cc1cc(-c2ccccc2Oc2ccccc2)c[nH]c1=O [Example 260, 3-methyl-5-(2-phenoxyphenyl)pyridin-2(1H)-one] | 2350 nM | 216 nM | 406 nM |  |  | 
25 | CCOC(=O)Nc1ccc(Oc2ccccc2)c(-c2nn(C)c(=O)cc2OC)c1 [Example 29, ethyl[3-(4-methoxy-1-methyl-6-oxo-1,6-dihydropyridazin-3-yl)-4-phenoxyphenyl]carbamate] | 4530 nM | 1370 nM | 950 nM |  |  | 
26 | Cn1nc(-c2ccccc2Oc2ccccc2)ccc1=O [Example 1, 2-methyl-6-(2-phenoxyphenyl)pyridazin-3(2H)-one] | 20000 nM | 1870 nM | 2050 nM |  |  | 
27 | CCS(=O)(=O)Nc1ccc(Oc2ccc(OC3COC3)cc2F)c(-c2cn(C)c(=O)cc2OC2COC2)c1 [Example 336, N-{4-[2-fluoro-4-(oxetan-3-yloxy)phenoxy]-3-[1-methyl-4-(oxetan-3-yloxy)-6-oxo-1,6-dihydropyridin-3-yl]phenyl}ethanesulfonamide] | 165 nM | 21.4 nM | 1.67 nM |  |  | 
28 | CC(O)c1ccc(-c2cc(=O)n(C)nc2-c2ccccc2Oc2ccccc2)cc1 (stereo not drawn) [Example 72, 5-[4-(1-hydroxyethyl)phenyl]-2-methyl-6-(2-phenoxyphenyl)pyridazin-3(2H)-one] | 3750 nM | 225 nM | 128 nM |  |  | 
